# Assay results: article PMC11219860, “A chemogenetic approach for dopamine imaging with tunable sensitivity” (Nature Communications, 2024)
# Assays:
# AlloLite-ctr = AlloLite-ctr (Homo sapiens, UniProt P21728, L143A/R130Q); format: cell-based
# Experimental: Cells were transfected at 50–60% confluency in glass-bottomed dishes (either individually or in 24-well plates) using the Effectene transfection kit (Qiagen) according to manufacturer instructions, and imaged 24–48 h after transfection. The Flp-In™ T-REx™ 293 cells (Thermo Fisher) with a stably integrated dLight1.3b cassette[48] were cultured as follows: the cells were cultured using HEK293T cell medium with the addition of Blasticidin (15 µg/ml) and Hygromycin B (200 µg/ml). To induce the expression of dLight1.3b, doxycycline (500 ng/ml) was added to the culture medium for 24–48 hours. Before imaging, cells were rinsed with 1 mL of Hank’s Balanced Salt Solution (HBSS, Life Technologies) supplemented with Ca^2+ (2 mM) and Mg^2+ (1 mM), and imaged at room temperature with a final HBSS volume of either 100 µL for each individual 1.5 cm glass bottom dish, or 500 µL for 24-well plates. […] For quantification, except otherwise noted, regions of interest (ROI) were selected manually using the threshold function of Fiji to isolate the cell membrane. Sensor response (∆F/F) was calculated as the following: (F(t)-F_base)/F_base with F(t) being the ROI fluorescence value at each time point (t), and F_base being the mean fluorescence of the 10-time points immediately prior to ligand addition.
# msDRD1 = molecular target: T1, msDRD1 (Mus musculus, UniProt Q61616); test: NanoBit complementation assay of mini-Gs recruitment; format: cell-based
# T1 construct: expressed in transfected cells; host or cells: HEK293T
# T1 sequence (Q61616 whole entry): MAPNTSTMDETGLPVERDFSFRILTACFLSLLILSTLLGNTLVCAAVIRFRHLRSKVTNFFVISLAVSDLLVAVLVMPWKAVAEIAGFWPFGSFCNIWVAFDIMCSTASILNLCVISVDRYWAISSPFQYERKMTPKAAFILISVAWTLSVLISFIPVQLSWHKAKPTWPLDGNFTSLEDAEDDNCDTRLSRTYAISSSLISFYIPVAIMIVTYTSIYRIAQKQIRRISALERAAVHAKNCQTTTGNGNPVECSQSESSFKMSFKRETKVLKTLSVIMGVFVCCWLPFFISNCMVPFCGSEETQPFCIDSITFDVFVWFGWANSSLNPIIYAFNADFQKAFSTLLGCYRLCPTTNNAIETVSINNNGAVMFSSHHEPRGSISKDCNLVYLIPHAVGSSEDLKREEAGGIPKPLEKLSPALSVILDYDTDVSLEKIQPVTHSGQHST
# Experimental: (§1) To measure the effect of DETQ on mini-G protein recruitment by different GPCRs we used a Nanoluciferase (NanoBit)-based complementation assay[26],[27]. For this HEK293T cells were seeded in six-well plates (Techno Plastic Products) at a density of 300,000 cells per well and co-transfected with plasmids encoding either hmDRD1, msDRD1, msDRD2, msDRD5, msADRA1a, msβ2AR or ms5HT6 carrying a C-terminally fused SmBiT, in combination with the corresponding mini-G protein probe[78] (mini-Gs: for DRD1, DRD5, β2AR, 5HT6R; mini-Gq: for ADRA1a; or mini-Gi: for DRD2), which were N-terminally fused to LgBiT, in a 1:1 DNA ratio using Effectene transfection reagent (Qiagen). 24 h after transfection cells were detached using Versene (ThermoFisher Scientific), washed, centrifuged (RT, 150 g, 3 min), and resuspended (0.5 × 10^6 cells ml^−1) in Fluorobrite DMEM (ThermoFisher Scientific) complemented with 30 mM HEPES (ThermoFisher Scientific). First, 95 µl of the cell suspension were added into each well of a white flat-bottom 96-well OptiPlate (PerkinElmer), then 25 µl of a 20-fold dilution of Nano-Glo reagent in LCS buffer (Promega) and last either 5 ul of pure Fluorobrite-DMEM or 5 ul of DETQ diluted in Fluorobrite DMEM (final concentration 100 nM for DRD1; 1 µM for all other receptors). The plate was incubated at 37 °C for 30 min, before the luminescence signal was measured at 37 °C using a Tecan Spark plate reader before and after the manual addition of 25 µl of either ligand solution (final concentrations ranging from 1 nM to 100 µM), pure Fluorobrite-DMEM or 25 µl of a DETQ solution (1 µM final concentration).
# (§2) For in vitro luminescence assays, ligand traces were divided by buffer traces, the area under the curve for each trace was calculated using GraphPad Prism, values were normalized and fitted as dose response curve. The change in luminescence (∆L/L0) upon addition of different ligands was calculated as follows: (Lt – L0)/L0, with Lt being the Luminescence at ten timepoints t immediately after ligand application, and L0 being the luminescence of ten timepoints before ligand application. The statistical significance was determined using Welch’s ANOVA followed by Dunnett’s multiple comparison test (comparison of ligand or vehicle to ligand). For ex vivo imaging experiments, statistical analyses were performed in Prism (GraphPad) using independent samples t-test or nonparametric Mann-Whitney U-test when assumption of normality was violated (assessed using Schapiro-Wilk’s test). Curve fitting parameters were compared by extra sum-of-squares F test. For in vivo imaging experiments, statistical tests were paired and unpaired t-tests (two-tailed) and repeated-measures ANOVA for parametric data, while they were Wilcoxon rank sum tests or Mann-Whitney for non-parametric data. Sidak or Tukey post-hoc tests correcting for multiple comparisons were used in the case of significant interactions in ANOVA. All p-values are indicated in the Results section. […] No statistical methods were used to predetermine sample size. No data were excluded from the analyses. Group allocations used in this study were randomly assigned to animals and/or cultured cells. The Investigators were not blinded to allocation during experiments and outcome assessment.
# msDRD5 = molecular target: T2, msDRD5 (Mus musculus, UniProt Q8BLD9); test: as above; format: cell-based
# T2 construct: expressed in transfected cells; host or cells: HEK293T
# T2 sequence (Q8BLD9 whole entry): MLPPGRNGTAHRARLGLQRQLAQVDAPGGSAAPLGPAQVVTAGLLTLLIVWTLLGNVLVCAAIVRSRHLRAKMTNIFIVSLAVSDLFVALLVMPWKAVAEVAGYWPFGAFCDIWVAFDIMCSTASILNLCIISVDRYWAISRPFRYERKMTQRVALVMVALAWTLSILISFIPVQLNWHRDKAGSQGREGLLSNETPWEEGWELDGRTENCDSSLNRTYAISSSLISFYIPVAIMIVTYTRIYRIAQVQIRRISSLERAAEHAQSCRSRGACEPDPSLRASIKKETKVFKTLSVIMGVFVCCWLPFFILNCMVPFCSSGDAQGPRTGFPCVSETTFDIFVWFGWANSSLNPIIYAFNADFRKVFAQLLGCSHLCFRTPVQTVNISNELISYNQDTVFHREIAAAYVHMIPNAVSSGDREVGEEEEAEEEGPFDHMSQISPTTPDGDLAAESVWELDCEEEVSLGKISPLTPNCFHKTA
# Experimental: as §1, §2
# msβ2AR = molecular target: T3, msβ2AR (Mus musculus, UniProt P18762); test: as above; format: cell-based
# T3 construct: expressed in transfected cells; host or cells: HEK293T
# T3 sequence (P18762 whole entry): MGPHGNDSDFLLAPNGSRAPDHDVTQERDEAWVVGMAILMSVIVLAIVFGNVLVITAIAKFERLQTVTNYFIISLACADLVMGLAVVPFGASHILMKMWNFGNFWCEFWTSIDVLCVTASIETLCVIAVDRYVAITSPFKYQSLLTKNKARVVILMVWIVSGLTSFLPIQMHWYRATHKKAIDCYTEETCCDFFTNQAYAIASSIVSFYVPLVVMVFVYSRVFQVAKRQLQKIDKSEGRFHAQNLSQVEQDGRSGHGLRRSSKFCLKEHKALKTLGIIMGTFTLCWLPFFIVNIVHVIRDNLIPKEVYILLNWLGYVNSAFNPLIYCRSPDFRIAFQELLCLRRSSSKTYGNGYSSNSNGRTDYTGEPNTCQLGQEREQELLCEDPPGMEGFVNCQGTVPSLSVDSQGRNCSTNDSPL
# Experimental: as §1, §2
# human DRD1 (hmDRD1) = conditions: cited from earlier work
smiles,measurement,setting,value
"C[C@H]1c2cccc(C(C)(C)O)c2C[C@H](CO)N1C(=O)Cc1c(Cl)cccc1Cl [DETQ, 2-(2,6-dichlorophenyl)-1-((1S,3R)-3-(hydroxymethyl)-5-(2-hydroxypropan-2-yl)-1-methyl-3,4-dihydroisoquinolin-2(1H)-yl)ethan-1-one]",α factor,AlloLite-ctr,1.6
same,maximal fluorescent response to a saturating concentration of DA,"AlloLite-ctr; DA 100 µM, wide range of DETQ concentrations",not affected
same,allosteric modulator mode: potentiation of mini-Gs recruitment during DA titration,msDRD1; DETQ 100 nM,potentiation of mini-Gs recruitment only in the case of the hmDRD1
same,agonist mode: direct agonist effect,msDRD1; DETQ 1 µM alone,no direct agonist effect
same,agonist mode: direct agonist effect,msDRD5; DETQ 1 µM alone,no direct agonist effect
same,allosteric modulator mode: effect on agonist dose-response,"msDRD5; DETQ 1 µM, DA",No allosteric effect
same,agonist mode: direct agonist effect,msβ2AR; DETQ 1 µM alone,no direct agonist effect
same,allosteric modulator mode: effect on agonist dose-response,"msβ2AR; DETQ 1 µM, NE",No allosteric effect
same,Kb,human DRD1 (hmDRD1),0.0114 µM
same,maximal potentiation of dopamine,"human DRD1 (hmDRD1); human clones, ref Hao et al., 2019, Wang et al., 2018",75-85%
same,in vitro potency as a D1PAM at the hD1 receptor,"human DRD1 (hmDRD1); ref Svensson et al., 2017, Hao et al., 2019",0.011 µM
